Test results reported in ChEMBL document CHEMBL3393059, “Optimisation of in silico derived 2-aminobenzimidazole hits as unprecedented selective kappa opioid receptor agonists” (Bioorg Med Chem Lett, 2015).

Tests used:
Assay type in all cases: ADME, organism-based
Design in all cases: dose 30 mg/kg, route oral
[1] = Cmax in mouse at 30 mg/kg, po; conditions: in vivo
[2] = Half life in mouse at 30 mg/kg, po; conditions: in vivo
[3] = AUC (0 to time) in mouse at 30 mg/kg, po; conditions: plasma

CN(C(=O)C(c1ccccc1)c1ccccc1)[C@H](CN1CC[C@H](O)C1)c1ccccc1 [ASIMADOLINE]
Cmax [1]: 507 ng/mL
half-life [2]: 30 min
AUC [3]: 493 ng·h/mL
